Measurements: patent US20240352066A1, “ANTIMICROBIAL COMPOUNDS AND THE METHOD OF USE” (priority 2021, published 2024)
Values after ≈ are worked out from the molar mass of the structure shown. Read-outs that look alike come from different tables or passages of the source. Where a SMILES comes first, the peptide text is derived from it. [ ]: non-standard residue; d: D form. N(tridecyl)Gly = CCCCCCCCCCCCCNCC(=O)O; Gly(N-2-aminoethyl) = NCCNCC(=O)O; Gly(N-cHex) = O=C(O)CNC1CCCCC1; Nleu = CC(C)CNCC(=O)O; Nlys = NCCCCNCC(=O)O

What was measured:
[1] = Mammalian cytotoxicity, MTT, HepG2; type: cell-based, human; details: human, HepG2 hepatocellular carcinoma cells
Procedure, shortened: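 HepG2 cells (1×10^5 cells/mL, phenol-red-free DMEM, 10% FBS) were exposed to 2-fold dilutions of compound at 1.56–200 μg/mL final, in triplicate, for 72 h at 37 °C, 5% CO2. MTT was added for 3 h and, after DMSO solubilization, absorbance was read at 570 nm. TD50 is the concentration giving a 50% growth reduction versus the water vehicle, reported as the mean of biological replicates ± SD.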

[2] = system: human red blood cells (hRBC); test: Hemolytic activity against human red blood cells; type: cell-based; details: for hRBC HC10: Example 2, same donor sample of hRBCs
Experimental: Hemolytic activity was determined using single donor human red blood cells (hRBC). hRBCs were washed with PBS and centrifuged (1000 RPM; 10 minutes) three times, resuspended in PBS and aliquoted (100 μL) in 96 well plates. 2-fold serial dilutions of 10× peptoid final concentrations in PBS were prepared and added to wells in triplicate. PBS was used as a vehicle control and 1% Triton X-100 as a positive control. Plates were incubated for 1 hour (37° C.; 5% CO2) then centrifuged (1000 RPM; 10 minutes) and supernatant was diluted 1:20 into PBS in a new 96-well plate. Plates were read on a SpectraMax M5 plate reader (Abs. 405 nm). Percent hemolysis was determined by the following equation: […]
GraFit was used to determine concentrations at 50% hemolytic activity (HC50) and the Hill coefficient (H). Hemolytic activity at 10% (HC10) was then determined by the following equation: […]
The hemolytic activity of select peptoids was determined as done previously (Green et al. ACS medicinal chemistry letters 12 9, 1470-1477 (2021); Middleton et al. Bioorganic & medicinal chemistry letters 28 22, 3514-3519 (2018)). Selected peptoids were prepared in 2-fold serial dilutions in PBS at the desired concentrations. Human red blood cells (hRBCs, 9 mL) were centrifuged at 1000 rpm for 10 minutes, and the supernatant was removed and discarded. A 10 mL aliquot of PBS was used to resuspend the hRBCs which were centrifuged again at 1000 rpm for 10 minutes. This PBS wash was completed two more times for a total of three washes. A 9 mL aliquot of PBS was added to the hRBCs, and 100 μL of cell solution was added to individual wells of a 96-well plate. Peptoid solutions (11.1 μL) were added to the appropriate wells in triplicate. A vehicle control of PBS and positive control of 1% Triton X-100 were added to wells in triplicate.
The plate was incubated at 37° C. for 1 hour and centrifuged at 1000 rpm for 10 minutes. For each well, 5 μL of supernatant was transferred to 95 μL of PBS in a new 96-well plate. The absorbance at 405 nm was measured using a SpectraMax M5 Plate Reader, and the percent hemolysis was calculated as follows: […]

Compound | CC50 at 72 h [1] | hRBC HC10 [2] | CC50 at 72 h ([1]; Example 1, 72 hours, MTT, read-out: TD50 HepG2) | HC10 hRBC ([2]; Example 1, 10% lysis, 1 hour)
CCCCCCCCCCCCCNCC(=O)N(CC(=O)N(CCCCN)CC(=O)N(CCN)CC(=O)N(CC(N)=O)CC(C)C)CC(C)C [Compound 9] (H-[N(tridecyl)Gly][Nleu][Nlys][Gly(N-2-aminoethyl)][Nleu]-NH2) | 167 ± 75 µg/mL (≈ 235 µM) | 130 ± 45 µg/mL | – | –
CCCCCCCCCCCCCNCC(=O)N(CC(=O)N(CCCCN)CC(=O)N(CCN)CC(=O)N(CC(N)=O)C1CCCCC1)C1CCCCC1 [RMG8-8, Ntri-Ncha-Nlys-Nae-Ncha] (H-[N(tridecyl)Gly][Gly(N-cHex)][Nlys][Gly(N-2-aminoethyl)][Gly(N-cHex)]-NH2) | – | 75 ± 31 µg/mL | 189 ± 43 µg/mL (≈ 248 µM) | 77 µg/mL
